# Source: patent US20220204512A1, “SUBSTITUTED FUSED BICYCLIC DERIVATIVE, PREPARATION METHOD THEREFOR, AND APPLICATION THEREOF IN MEDICINES” (Jiangsu Hengrui Medicine Co., Ltd., priority 2019, published 2022)
# Experiments:
# [1] = system: Colo205 cells; assay: In vitro proliferation inhibition test on Colo205 tumor cells (CellTiter-Glo); format: cell-based; conditions: Homo sapiens, COLO 205, 72 h; Colo205 cell proliferation, 3 days of culture, CTG
# Method: The purpose of this experiment is to test the inhibitory activity of the compounds of the present disclosure on the proliferation of Colo205 cells (CCL-222, ATCC) in vitro. The cells were treated in vitro with different concentrations of the compounds. After 3 days of culture, the cell proliferation was tested with CTG (CellTiter-Glo® Luminescent Cell Viability Assay, Promega, Catalog No. G7573) reagent, and the in vitro activity of the compounds was evaluated according to the ICso value.
# In the following, the in vitro proliferation inhibition test method of Colo205 cells is taken as an example to illustrate the method for testing the in vitro proliferation inhibitory activity of the compounds of the present disclosure on tumor cells. This method is also applicable to, but not limited to, the in vitro proliferation inhibitory activity test on other tumor cells.
# Colo205 cells were digested, centrifuged and then resuspended. The single cell suspension was mixed well, and the density of viable cells was adjusted to 5.0×10^4 cells/ml with cell culture medium (RPMI1640+2% FBS), and 95 μL/well was added to a 96-well cell culture plate. Only 100 μL medium was added to the peripheral wells of the 96-well plate. The culture plate was incubated in an incubator for 24 hours (37° C., 5% CO2).
# The compound was dissolved in DMSO (dimethyl sulfoxide, Shanghai Titan Scientific Co., Ltd.) and prepared as a stock solution with an initial concentration of 20 mM. The initial concentration of the small molecule compound was 2 mM, and then 4-fold diluted into 9 points, and the 10th point was DMSO. Another 96-well plate was taken, and 90 μL of cell culture medium (RPMI1640+2% FBS) was added to each well. Then 10 μL of different concentrations of the test sample was added to each well. The mixture was mixed well, and then 5μL of different concentrations of the test sample was added to the cell culture plate. Each sample has two duplicate holes. The culture plate was incubated in the incubator for 3 days (37° C., 5% CO2). The 96-well cell culture plate was taken out. 50 μL solution of CTG was added to each well, and the plate was incubated for 10 minutes at room temperature. In a microplate reader (BMG labtech, PHERAstar FS), chemiluminescence was measured with the microplate reader.
# (§1) Microsoft Excel, Graphpad Prism 5 was used to process and analyze the data.
# [2] = target: T1, ERK2 (Homo sapiens, UniProt P28482); assay: ERK2 enzyme activity test (ADP-Glo Kinase Assay); format: biochemical; conditions: ADP-Glo chemiluminescence
# T1 construct: purchased R&D 1879-KS-010
# Method: (§2) The purpose of this experiment is to detect the inhibitory ability of the compounds of the present disclosure on the ERK2 enzyme activity, and to evaluate the in vitro activity of the compounds based on the IC50. The ADP-Glo™ Kinase Assay Kit was used in this experiment. The substrate was phosphorylated under the action of the enzyme and ADP was produced at the same time. The ADP-Glo reagent was added to remove the unreacted ATP in the reaction system, and the ADP produced by the reaction was detected with kinase detection reagent. In the presence of the compound, the inhibition rate of the compound was calculated by measuring the signal value.
# Preparation of enzyme and substrate: ERK2 (1879-KS-010, R&D) and substrate (custom peptide, Gill Biochemical) were prepared to 0.75 ng/ml and 1500 μM in a buffer (40 mM Tris, 20 mM MgCl2, 0.1 mg/ml BSA, 50 μM DTT), and then the enzyme solution and the substrate solution were prepared into a mixed solution at a volume ratio of 2:1 for later use. ATP was diluted to 500 μM with buffer. The compound was dissolved in DMSO (dimethyl sulfoxide, Shanghai Titan Scientific Co., Ltd.) to prepare a stock solution with an initial concentration of 20 mM, and then Bravo was used to prepare the compound. Finally, 3 μL of a mixed solution of enzyme and substrate, and 1 μL substrate of different concentrations of the compound (the initial concentration is 50 μM, 4-fold dilution) were added to each well of the 384-well plate, and the plate was incubated at 30° C. for 10 minutes, and finally 1 μL 500 μM ATP solution was added to each well, and the plate was incubated at 30° C. for 2 hours. Then 5 μL of ADP-Glo was added, and the plate was incubated at 30° C. for 40 minutes. Then 10 μL of kinase detection buffer was added, and the plate was incubated at 30° C. for 40 minutes. The 384-well plate was taken out and placed in a microplate reader (BMG labtech, PHERAstar FS), and the chemiluminescence was measured by a microplate reader.
# as §1
# [3] = target: T2, ERK1 (Homo sapiens, UniProt P27361); assay: ERK1 enzyme activity test (ADP-Glo Kinase Assay); format: biochemical; conditions: ADP-Glo chemiluminescence
# T2 construct: purchased R&D 1879-KS-010
# Method: as §2, with “ERK1” for “ERK2”, “activity” for “activity,”
# Preparation of Enzyme and substrate: ERK1 (1879-KS-010, R&D) and substrate (AS-61777, anaspec) were prepared to 0.75 ng/p1 and 100 μM respectively in a buffer, and then the enzyme solution and the substrate solution were prepared into a mixed solution at a volume ratio of 2:1 for later use. ATP was diluted to 300 μM with buffer. The compound was dissolved in DMSO (dimethyl sulfoxide, Shanghai Titan Scientific Co., Ltd.) to prepare a stock solution with an initial concentration of 20 mM, and then Bravo was used to prepare the compound. Finally, 3 μL of a mixed solution of enzyme and substrate, and 1 μL of different concentrations of the compound (the initial concentration was 50 μM, 4-fold dilution) were added to each well of the 384-well plate, and the plate was incubated at 30° C. for 10 minutes, and finally 1 μL of 300 μM ATP solution was added to each well, and the plate was incubated at 30° C. for 2 hours. Then 5 μL of ADP-Glo was added, and the plate was incubated at 30° C. for 40 minutes. Then 10 μL of kinase detection buffer was added, and the plate was incubated at 30° C. for 40 minutes. The 384-well plate was taken out and placed in a microplate reader (BMG labtech, PHERAstar FS), and the chemiluminescence was measured by a microplate reader.
# as §1
# [4] = Pharmacokinetics assay in mice; format: in vivo; conditions: female, mouse, po, C57 mice, intragastric, 2 mg/kg, plasma
# Method: Mice were used as test animals. The drug concentration in plasma at different time points was determined by LC/MS/MS method after administration of the compounds 1-P2, 2-P2, 4-P2, 6-P2, 9-P2, 10-P2 and 11-P2. The pharmacokinetic behavior of the compounds of the present disclosure was studied and evaluated in mice.
# Sixty-three C57 mice (female, equally divided into seven groups) were purchased from Shanghai Jiesijie Laboratory Animal Co., LTD. (Certificate No.: SCXK(Shanghai)2013-0006).
# A certain amount of the test compound was weighed, dissolved in 5% of DMSO by volume and 5% of tween 80, followed by the additon of 90% of normal saline to prepare a 0.1 mg/mL colorless, clear and transparent solution.
# After an overnight fast, C57 mice were intragastrically administered the test compound at an administration dose of 2 mg/kg and an administration volume of 0.2 ml/10 g.
# The mice were intragastrically administered the test compounds. 0.1 ml of blood was taken before the administration and at 0.25, 0.5, 1.0, 2.0, 4.0, 6.0, 8.0, 11.0 and 24.0 hours after the administration. The samples were stored in heparinized tubes, and centrifuged for 10 minutes at 3500 rpm to separate the blood plasma. The plasma samples were stored at −20° C.
# The content of the test compound in the plasma of mice after intragastrical administration of the test compound at different concentrations was determined: 25 μL of […] plasma at each time point after the administration was taken, followed by the addition of 50 μL of the internal standard camptothecin solution (100ng/mL) and 200 μL of acetonitrile. The resulting solution was vortex-mixed for 5 minutes, and centrifuged for 10 minutes (4000 rpm). 4 μL of the supernatant was taken from the plasma samples for LC/MS/MS analysis.
# T1 sequence (P28482 2-360 limits assumed): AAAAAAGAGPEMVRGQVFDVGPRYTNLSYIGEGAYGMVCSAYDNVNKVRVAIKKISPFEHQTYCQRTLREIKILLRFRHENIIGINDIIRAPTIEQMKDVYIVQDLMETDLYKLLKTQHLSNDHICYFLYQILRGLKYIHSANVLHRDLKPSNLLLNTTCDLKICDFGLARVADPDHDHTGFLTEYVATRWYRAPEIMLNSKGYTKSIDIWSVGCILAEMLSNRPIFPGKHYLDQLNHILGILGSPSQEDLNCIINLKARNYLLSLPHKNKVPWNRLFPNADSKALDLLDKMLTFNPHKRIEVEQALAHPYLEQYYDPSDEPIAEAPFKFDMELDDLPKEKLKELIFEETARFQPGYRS
# T2 sequence (P27361 whole entry): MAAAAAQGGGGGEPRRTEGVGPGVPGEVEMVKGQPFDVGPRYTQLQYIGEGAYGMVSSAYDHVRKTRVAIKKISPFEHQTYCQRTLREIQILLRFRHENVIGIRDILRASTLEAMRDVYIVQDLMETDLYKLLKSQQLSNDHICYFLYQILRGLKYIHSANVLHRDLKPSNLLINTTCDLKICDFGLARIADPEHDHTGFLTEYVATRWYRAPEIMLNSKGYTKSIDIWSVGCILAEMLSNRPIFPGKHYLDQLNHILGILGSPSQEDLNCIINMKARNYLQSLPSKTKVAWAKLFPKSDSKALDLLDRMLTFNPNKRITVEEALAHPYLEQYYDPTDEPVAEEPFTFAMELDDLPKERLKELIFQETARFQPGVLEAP
SMILES,IC50 [1] [nM],IC50 [2] [nM],IC50 [3] [nM],Vd/F ([4]; read-out: Apparent distribution volume Vz/F) [L/kg],AUC ([4]; read-out: Area under curve AUC) [ng·h/mL],CL/F ([4]; read-out: Clearance CLz/F) [mL/min/kg],half-life ([4]; read-out: Half-life T1/2 (converted)) [h],Cmax ([4]; read-out: Plasma concentration Cmax) [ng/mL],MRT ([4]; read-out: Residence time MRT) [h]
"COc1cc(F)cc([C@@H](CO)NC(=O)[C@@H](C)N2CCn3cc(-c4nc(NC5CCOCC5)ncc4C)cc3C2=O)c1 [Example 17-P2, (R)-N-((S)-1-(3-Fluoro-5-methoxyphenyl)-2-hydroxyethyl)-2-(7-(5-methyl-2-((tetrahydro-2H-pyran-4-yl)amino)pyrimidin-4-yl)-1-oxo-3,4-dihydropyrrolo[1,2-a]pyrazin-2(1H)-yl)propanamide]",38,3.1,22,,,,,,
"COc1cc(F)cc([C@@H](CO)NC(=O)[C@@H](C)N2CCn3cc(-c4nc(NC5CCOCC5)ncc4Cl)nc3C2=O)c1 [Example 3-P2, (R)-2-(2-(5-Chloro-2-((tetrahydro-2H-pyran-4-yl)amino)pyrimidin-4-yl)-8-oxo-5,6-dihydroimidazo[1,2-a]pyrazin-7(8H)-yl)-N-((S)-1-(3-fluoro-5-methoxyphenyl)-2-hydroxyethyl)propanamide]",,1.75,4.6,,,,,,
"Cc1cccc([C@@H](CO)NC(=O)[C@@H](C)N2CCn3cc(-c4ccnc(NC5CCOCC5)n4)cc3C2=O)c1 [Example 19-P2, (R)-N-((S)-2-Hydroxy-1-(m-tolyl)ethyl)-2-(1-oxo-7-(2-((tetrahydro-2H-pyran-4-yl)amino)pyrimidin-4-yl)-3,4-dihydropyrrolo[1,2-a]pyrazin-2(1H)-yl)propanamide]",67,6.7,,,,,,,
"COc1cc(F)cc([C@@H](CO)NC(=O)[C@@H](C)N2CCc3cc(-c4nc(Nc5ccnn5C)ncc4C)cn3C2=O)c1 [Example 1-P2, (R)-N-((S)-1-(3-Fluoro-5-methoxyphenyl)-2-hydroxyethyl)-2-(6-(5-methyl-2-((1-methyl-1H-pyrazol-5-yl)amino)pyrimidin-4-yl)-1-oxo-3,4-dihydropyrrolo[1,2-c]pyrimidin-2(1H)-yl)propanamide]",17.4,1.5,7,3.75,1110,29.7,1.46,501,1.84
"C[C@H](C(=O)N[C@H](CO)c1cccc(Cl)c1)N1CCn2cc(-c3nc(NC4CCOCC4)ncc3Cl)cc2C1=O [Example 13-P2, (R)-2-(7-(5-Chloro-2-((tetrahydro-2H-pyran-4-yl)amino)pyrimidin-4-yl)-1-oxo-3,4-dihydropyrrolo[1,2-a]pyrazin-2(1H)-yl)-N—((S)-1-(3-chlorophenyl)-2-hydroxyethyl)propanamide]",31,2.8,,,,,,,
"COc1cc(F)cc([C@@H](CO)NC(=O)[C@@H](C)N2CCn3cc(-c4nc(Nc5ccnn5C)ncc4C)cc3C2=O)c1 [Example 12-P2, (R)-N-((S)-1-(3-Fluoro-5-methoxyphenyl)-2-hydroxyethyl)-2-(7-(5-methyl-2-((1-methyl-1H-pyrazol-5-yl)amino)pyrimidin-4-yl)-1-oxo-3,4-dihydropyrrolo[1,2-a]pyrazin-2(1H)-yl)propanamide]",82,0.9,9.4,,,,,,
"Cc1cccc([C@@H](CO)NC(=O)[C@@H](C)N2CCn3cc(-c4nc(Nc5ccnn5C)ncc4C)cc3C2=O)c1 [Example 10-P2, (R)-N-((S)-2-Hydroxy-1-(m-tolyl)ethyl)-2-(7-(5-methyl-2-((1-methyl-1H-pyrazol-5-yl)amino)pyrimidin-4-yl)-1-oxo-3,4-dihydropyrrolo[1,2-a]pyrazin-2(1H)-yl)propanamide]",100,1.1,8.5,,,,,,
"C[C@H](C(=O)N[C@H](CO)c1cccc(Cl)c1)N1CCc2cc(-c3nc(NC4CCOCC4)ncc3Cl)cn2C1=O [Example 16-P2, (R)-2-(6-(5-Chloro-2-((tetrahydro-2H-pyran-4-yl)amino)pyrimidin-4-yl)-1-oxo-3,4-dihydropyrrolo[1,2-c]pyrimidin-2(1H)-yl)-N-((S)-1-(3-chlorophenyl)-2-hydroxyethyl)propanamide]",54,4.2,,,,,,,
